Assay results published in patent US10934274B2, “Quinoline derivatives as TAM RTK inhibitors” (Qurient Co., Ltd., priority 2015, dated 2021).

Key:
[1] = target: T1, Mer (Homo sapiens, UniProt Q12866); test: LanthaScreen Eu kinase binding assay, Mer; conditions: Tracer 236
T1 construct: purchased Life Technologies
T1 sequence (Q12866 21-999): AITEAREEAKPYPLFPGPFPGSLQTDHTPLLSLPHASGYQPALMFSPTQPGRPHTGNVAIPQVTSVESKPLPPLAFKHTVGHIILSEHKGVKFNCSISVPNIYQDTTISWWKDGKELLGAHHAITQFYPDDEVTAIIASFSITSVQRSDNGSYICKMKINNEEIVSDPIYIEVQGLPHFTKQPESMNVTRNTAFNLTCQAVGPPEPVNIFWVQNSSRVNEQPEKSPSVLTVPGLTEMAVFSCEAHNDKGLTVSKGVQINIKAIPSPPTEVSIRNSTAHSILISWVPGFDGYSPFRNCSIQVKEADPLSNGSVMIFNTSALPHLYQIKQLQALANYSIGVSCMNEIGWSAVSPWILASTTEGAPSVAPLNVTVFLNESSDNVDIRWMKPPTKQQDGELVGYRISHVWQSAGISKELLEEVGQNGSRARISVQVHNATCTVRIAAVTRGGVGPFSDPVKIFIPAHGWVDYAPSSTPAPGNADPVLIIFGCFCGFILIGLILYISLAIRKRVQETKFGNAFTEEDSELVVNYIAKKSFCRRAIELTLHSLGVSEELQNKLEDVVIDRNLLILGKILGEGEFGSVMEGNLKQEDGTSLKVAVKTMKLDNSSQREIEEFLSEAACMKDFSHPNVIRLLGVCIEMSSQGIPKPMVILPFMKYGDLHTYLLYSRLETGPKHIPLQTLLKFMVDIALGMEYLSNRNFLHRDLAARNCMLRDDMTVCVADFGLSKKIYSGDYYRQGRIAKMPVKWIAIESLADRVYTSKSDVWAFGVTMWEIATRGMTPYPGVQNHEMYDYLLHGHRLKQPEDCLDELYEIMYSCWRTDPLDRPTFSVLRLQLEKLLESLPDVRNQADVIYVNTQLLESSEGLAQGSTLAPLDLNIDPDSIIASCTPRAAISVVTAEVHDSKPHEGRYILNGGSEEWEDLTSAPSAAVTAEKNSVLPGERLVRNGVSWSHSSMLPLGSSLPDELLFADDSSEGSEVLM

[2] = tested on: Axl phosphorylation in transiently transfected HEK293T cells; test: Cellular Axl phosphorylation assay; type: cell-based; conditions: Homo sapiens, HEK-293T; HEK293T cells transfected with Axl, 1 hour compound treatment, Phospho-Axl vs Total-Axl
In short: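 Axl-RTK was overexpressed by transfection in HEK293T cells to drive trans-autophosphorylation; cells were exposed to test compound for 1 hour. Phospho-Axl and total Axl were captured in lysates and detected by MSD electrochemiluminescence. IC50 was set between the DMSO group and the empty-vector-transfected minimum.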

| Compound | Kd [1] [nM] | IC50 [2] [nM] |
| --- | --- | --- |
| COc1cc2nccc(Oc3ccc(NC(=O)c4nn(-c5ccc(F)cc5OC)cc4OCC4CC4)nc3)c2cc1OC [Compound 264] | < 100 | < 100 |
| CCOc1cn(-c2cc[nH]c2)nc1C(=O)Nc1ccc(Oc2ccnc3cc(OC)c(OC)cc23)cn1 [Compound 32] | < 100 | < 100 |
| COc1cc2nccc(Oc3ccc(NC(=O)c4nn(-c5cnccc5C(F)(F)F)cc4OCC4CC4)nc3)c2cc1OC [Compound 247] | < 100 | < 100 |
| COc1cc2nccc(Oc3ccc(NC(=O)c4nn(-c5cnc(N)nc5)cc4OCC4CCC4)nc3)c2cc1OC [Compound 262] | < 100 | < 100 |
| CCOc1cn(-c2cnccn2)nc1C(=O)Nc1ccc(Oc2ccnc3cc(OC)c(OC)cc23)cn1 [Compound 36] | < 100 | < 100 |
| CCOc1cn(-c2cnccc2CO)nc1C(=O)Nc1ccc(Oc2ccnc3cc(OC(C)C)c(OC)cc23)cc1F [Compound 231] | < 100 | < 100 |
| COc1cc2nccc(Oc3ccc(NC(=O)c4nn(-c5ccc(F)cc5C5CCCC5)cc4OCC4CC4)nc3)c2cc1OC [Compound 270] | 100 to 1000 | < 100 |
| CCOc1cn(-c2cnc(N)nc2)nc1C(=O)Nc1ccc(Oc2ccnc3cc(OC)c(OC(F)(F)F)cc23)cc1F [Compound 242] | ≥ 1000 | 100 to 1000 |
| COc1cc2nccc(Oc3ccc(NC(=O)c4nn(-c5cncnc5C5CC5)cc4OCC(F)(F)F)nc3)c2cc1OC [Compound 261] | < 100 | < 100 |
| CCOc1cn(-c2cnsc2)nc1C(=O)Nc1ccc(Oc2ccnc3cc(OC)c(OC)cc23)cn1 [Compound 39] | < 100 | < 100 |
| CCOc1cn(C(C)(C)C(=O)NC)nc1C(=O)Nc1ccc(Oc2ccnc3cc(OC)c(OC)cc23)cn1 [Compound 68] | < 100 | < 100 |
| COc1cc2nccc(Oc3ccc(NC(=O)c4nn(-c5ccc(F)cc5Oc5ccccc5)cc4OCC4CC4)nc3)c2cc1OC [Compound 272] | < 100 | < 100 |
| COc1cc2nccc(Oc3ccc(NC(=O)c4nn(-c5cccnc5)cc4OCC4CC4)nc3)c2cc1OC [Compound 255] | < 100 | < 100 |
| CCOc1cn(-c2ccc(N(C)C)cc2Cl)nc1C(=O)Nc1ccc(Oc2ccnc3cc(OC)c(OC)cc23)cn1 [Compound 31] | < 100 | < 100 |
| CCOc1cn(C2CCCN(C(C)=O)C2)nc1C(=O)Nc1ccc(Oc2ccnc3cc(OC)c(OC)cc23)cc1F (stereo not shown) [Compound 224] | < 100 | < 100 |
| CCOc1cn(-c2cccnc2Cl)nc1C(=O)Nc1ccc(Oc2ccnc3cc(OC)c(OC)cc23)cn1 [Compound 19] | < 100 | < 100 |
| CCOc1cn(CCOC)nc1C(=O)Nc1ccc(Oc2ccnc3cc(OC)c(OC)cc23)cn1 [Compound 64] | < 100 | < 100 |
| COc1cc2nccc(Oc3ccc(NC(=O)c4nn(-c5ccc(F)cc5Cl)cc4OCC4CC4)nc3)c2cc1OC [Compound 263] | < 100 | < 100 |
| CCOc1cn(-c2ccoc2)nc1C(=O)Nc1ccc(Oc2ccnc3cc(OC)c(OC)cc23)cn1 [Compound 33] | < 100 | < 100 |
| CCOc1cn(C)nc1C(=O)Nc1ccc(Oc2ccnc3cc(OC)c(OC)cc23)cn1 [Compound 29] | < 100 | 100 to 1000 |
| COc1cc2nccc(Oc3ccc(NC(=O)c4nn(-c5cccnc5)cc4OCC4CC4)nc3)c2cc1OC(F)(F)F [Compound 239] | 100 to 1000 | < 100 |
| COc1cc2c(Oc3ccc(NC(=O)c4nn(-c5cnc(N)cn5)cc4OCC(F)(F)F)nc3)ccnc2cc1OC(C)C [Compound 253] | < 100 | < 100 |
| COc1cc2c(Oc3ccc(NC(=O)c4nn(-c5cnc(N)nc5)cc4OCC(F)(F)F)c(F)c3)ccnc2cc1OC(C)C [Compound 243] | < 100 | < 100 |
| CCOc1cnn(-c2ccsc2)c1C(=O)Nc1ccc(Oc2ccnc3cc(OC)c(OC)cc23)cn1 [Compound 21] | 100 to 1000 | < 100 |
| CCOc1cn(CC2CCO2)nc1C(=O)Nc1ccc(Oc2ccnc3cc(OC)c(OC)cc23)cn1 (stereo not shown) [Compound 48] | < 100 | < 100 |

| Compound | Kd [1] [nM] | IC50 [2] [nM] |
| --- | --- | --- |
| CCOc1cn(CCOC(F)(F)F)nc1C(=O)Nc1ccc(Oc2ccnc3cc(OC)c(OC)cc23)cn1 [Compound 38] | < 100 | < 100 |
| COc1cc2nccc(Oc3ccc(NC(=O)c4nn(-c5ccc(F)cc5C(C)=O)cc4OCC4CC4)nc3)c2cc1OC [Compound 273] | < 100 | < 100 |
| COc1cc2nccc(Oc3ccc(NC(=O)c4nn(-c5ccc(F)cc5F)cc4OCC(F)(F)F)nc3)c2cc1OC [Compound 268] | < 100 | < 100 |
| CCOc1cn(-c2ccc(OC)cc2)nc1C(=O)Nc1ccc(Oc2ccnc3cc(OC)c(OC)cc23)cn1 [Compound 1] | < 100 | < 100 |
| CCOc1cn(-c2ccc(C#N)cn2)nc1C(=O)Nc1ccc(Oc2ccnc3cc(OC)c(OC)cc23)cn1 [Compound 43] | ≥ 1000 | ≥ 1000 |
| COc1cc2nccc(Oc3ccc(NC(=O)c4nn(-c5ccc(F)cc5F)cc4OCC4CC4)nc3)c2cc1OC [Compound 267] | < 100 | < 100 |
| CCOc1sc(-c2cccnc2)nc1C(=O)Nc1ccc(Oc2ccnc3cc(OC)c(OC)cc23)cn1 [Compound 45] | < 100 | < 100 |
| CCOc1cn(C2CCN(C)C2)nc1C(=O)Nc1ccc(Oc2ccnc3cc(OC)c(OC)cc23)cc1F (stereo not shown) [Compound 212] | 100 to 1000 | < 100 |
| CCOc1cn(-c2ccncc2Cl)nc1C(=O)Nc1ccc(Oc2ccnc3cc(OC)c(OC)cc23)cn1 [Compound 26] | < 100 | < 100 |
| CCOc1cn(-c2cnccc2CN(C)C)nc1C(=O)Nc1ccc(Oc2ccnc3cc(OC)c(OC)cc23)cn1 [Compound 73] | < 100 | < 100 |
| CCOc1cn(-c2cnccc2CCCN(C)C)nc1C(=O)Nc1ccc(Oc2ccnc3cc(OC)c(OC)cc23)cn1 [Compound 61] | < 100 | < 100 |
| CCOc1cn(-c2ccncc2C)nc1C(=O)Nc1ccc(Oc2ccnc3cc(OC)c(OC)cc23)cn1 [Compound 34] | < 100 | < 100 |
| COc1cc2nccc(Oc3ccc(NC(=O)c4nn(-c5cnc(N)nc5)cc4OCC4CNC4)nc3)c2cc1OC [Compound 265] | ≥ 1000 | ≥ 1000 |
| CCOc1cn(-c2ccsc2)nc1C(=O)Nc1ccc(Oc2ccnc3cc(OC)c(OC)cc23)cn1 [Compound 18] | < 100 | < 100 |
| CCOc1cnn(-c2ccco2)c1C(=O)Nc1ccc(Oc2ccnc3cc(OC)c(OC)cc23)cn1 [Compound 58] | 100 to 1000 | < 100 |
| CCOc1cn(-c2cnc(N)nc2)nc1C(=O)Nc1ccc(Oc2ccnc3cc(OC(C)C)c(OC)cc23)cc1F [Compound 230] | < 100 | < 100 |
| COc1cc2nccc(Oc3ccc(NC(=O)c4nn(-c5cnc(N)nc5)cc4OC(F)F)nc3)c2cc1OC [Compound 254] | < 100 | < 100 |
| COc1cc2nccc(Oc3ccc(NC(=O)c4nn(-c5cnc(Cl)cn5)cc4OCC(F)(F)F)nc3)c2cc1OC [Compound 236] | < 100 | < 100 |
| CCOc1cn(CCn2cccn2)nc1C(=O)Nc1ccc(Oc2ccnc3cc(OC)c(OC)cc23)cn1 [Compound 37] | < 100 | 100 to 1000 |
| CCOc1cn(-c2cnccc2C(C)(O)CO)nc1C(=O)Nc1ccc(Oc2ccnc3cc(OC)c(OC)cc23)cc1F (stereo not shown) [Compound 227] | < 100 | < 100 |
| CCOc1cn(-c2ccn(C)c2)nc1C(=O)Nc1ccc(Oc2ccnc3cc(OC)c(OC)cc23)cn1 [Compound 56] | < 100 | < 100 |
| COc1cc2nccc(Oc3ccc(NC(=O)c4nn(-c5ccc(F)c(C(C)=O)c5)cc4OCC4CC4)nc3)c2cc1OC [Compound 274] | < 100 | < 100 |
| CCC(C)Oc1cc2nccc(Oc3ccc(NC(=O)c4nn(-c5cccnc5)cc4OCC(F)(F)F)nc3)c2cc1OC (stereo not shown) [Compound 234] | < 100 | < 100 |
| COc1cc2nccc(Oc3ccc(NC(=O)c4nn(-c5cnc(N)cn5)cc4OCC(F)(F)F)c(F)c3)c2cc1OC [Compound 252] | < 100 | < 100 |
| CCOc1cnn(-c2cccs2)c1C(=O)Nc1ccc(Oc2ccnc3cc(OC)c(OC)cc23)cn1 [Compound 20] | 100 to 1000 | < 100 |
